Values quoted from earlier work, collected in US20100003250A1, “(2-ARYL-7H-PYRROLO[2,3-D]PYRIMIDIN-4-YL)MORPHOLINE COMPOUNDS, THEIR USE AS MTOR KINASE AND PI3 KINASE INHIBITORS, AND THEIR SYNTHESES” (Wyeth, priority 2008, published 2010).

What was measured:
[1] = tested on: acute lymphoblastic leukemia; details: in vivo; cited from earlier work
mTOR = mTOR (Homo sapiens, UniProt P42345); details: read-out: mTOR IC50; mTOR complexes / mTOR enzymes; cited from earlier work
[2] = tested on: human tumor xenograft models; details: chronic oral administration, 400 mg/kg; A549, PC-3, WiDr; cited from earlier work

| SMILES | activity in NOS/SCID xenograft mouse model of acute lymphoblastic leukemia [1] | IC50 (mTOR) [µM] | tumor growth in mouse human xenograft cancer models [2] |
| --- | --- | --- | --- |
| CO[C@H]1C[C@@H]2CC[C@@H](C)[C@@](O)(O2)C(=O)C(=O)N2CCCC[C@H]2C(=O)O[C@H]([C@H](C)C[C@@H]2CC[C@@H](OC(=O)C(C)(CO)CO)[C@H](OC)C2)CC(=O)[C@H](C)/C=C(\C)[C@@H](O)[C@@H](OC)C(=O)[C@H](C)C[C@H](C)/C=C/C=C/C=C/1C [Torisel] | active |  |  |
| FC(F)c1nc2ccccc2n1-c1nc(N2CCOCC2)nc(N2CCOCC2)n1 [ZSTK474, 2-(2-difluoromethylbenzoimidazol-1-yl)-4,6-dimorpholino-1,3,5-triazine] |  | > 10 | completely inhibited growth |
